Data as given in US5932217A, “Peptides which inhibit adhesion between leukocytes and endothelial cells” (priority 1994, dated 1999).

What was measured:
[1] = test system: rabbits challenged intracisternally with pneumococcus strain R6; experiment: Rabbit model for meningitis, intravenous FHA or peptides; format: in vivo; conditions: for Lactate / Protein: CSF at 6 hours
Protocol: The rabbit model was performed according to an established protocol. Specific pathogen free, New Zealand white rabbits (2 kg; Hare Marland, Nutley, N.J.) were anesthetized with valium (2.5 mg/kg, subcutaneously, Hoffman-LaRoche, Nutley, N.J.), ketamine (35 mg/kg, intramuscularly, Aveco, Fort Dodge, Iowa) and xylazine (5 mg/kg, intramuscularly, Miles Laboratories, Shawnee, Kans.) and a helmet of dental acrylic was affixed to the calvarium. Twenty four hours later, the rabbits were anesthetized with ethyl carbamate (1.75 g/kg; Aldrich Chemical Co., Milwaukee, Wis.) and pentobarbital (15 mg/kg; Abbott Laboratories, Abbott Park, Ill.) and placed in a stereotaxic frame. A spinal needle was introduced into the cisterna magna and 300 μl of CSF was withdrawn. The animals were challenged intracisternally with 10^8 heat killed, unencapsulated pneumococcus strain R6 introduced in 200 μl of saline (time 0). One hour later, animals were treated with peptides dissolved in 1 ml of saline by intravenous injection into the right marginal ear vein. The concentration of FHA was 0.1 μM and that of the FHA Ia, Factor X II, and scrambled FHA II peptides was 10 μM. For the acetyl-FHA II, acetyl/amide-FHA II, dimer of FHA II and trimer of FHA II peptides, the concentration was 10^-3 μM. The concentration of FHA II is given in the results section. Samples of CSF were withdrawn at hourly intervals after pneumococcal inoculation and leukocyte density was measured using a cell counter (Coulter Electronics Inc., Hialeah, Fla.). CSF samples were centrifuged at 10,000×g for 5 minutes and the supernatant was stored at -70° C. until assayed for protein concentration using the bicinchoninic acid method (BCA Kit, Pierce Chemical Co., Rockford Ill.) and for lactate concentration (Lactate Detection Kit, Sigma, St. Louis, Mo.). Statistically significant differences between treatments were determined by a one way analysis of variance test.
The anti-inflammatory effects of the administered peptides were assessed in the rabbit model for meningitis by the procedures described in Example 10. The animals received 1 ml of 1 uM peptide intravenously. In a slight departure from the protocol described in Example 10, samples of blood were drawn from the left marginal ear vein 30 minutes after the administration of the peptides to determine peripheral leukocyte concentrations.

[2] = test system: human umbilical vein endothelial cells; experiment: Adherence of neutrophils to cultured activated endothelial cells; format: cell-based
Protocol: Human umbilical vein endothelial cells (HUVEC, first passage, Clonetics, San Diego, Calif.) were subcultured at confluence into Terasaki tissue culture wells. After 24 hours, confluent monolayers were used for adherence assays. Monolayers were stimulated with 10 ng/ml TNF alpha (Boehringer Mannheim, Indianapolis, Ind.) at 37° C. for four hours. 30 μl of human neutrophils (10^6 /ml) were labeled with fluorescein by the method of Lo et al. (1991), J. Exp. Med. 173 1493-1500, and preincubated for 15 minutes at 37° C. with 20 μl of peptides (0.5 mM in HAP) or HAP (phosphate buffered saline containing 0.5 mg/ml human serum albumin, 3 mM glucose, and 0.3 U/ml aprotinin) as a control buffer. For some experiments, endothelial cells ere pretreated from 10 minutes with Factor X or antibodies against Factor X receptor (EPR-1; Altieri et al. (1990), J. Immunol. 145, 246-253) 12H1 and 9D4 (obtained from Dr. D. Altieri, Scripps Research Institute, LaJolla, Calif.) and then washed. Neutrophils were allowed to adhere to the monolayer for 15 mins. at 37° C. and unbound cells were removed by submersion of the plate in PBS buffer. The number of adherent neutrophils was counted in a 40× microscope field and expressed as a percentage of adherence in control wells with neutrophils treated with HAP buffer alone. The mAb IB4 against CD18 (50 μg/ml; Merck Inc., Rahway, N.J.) served as a positive control.
The ability of FHA peptides and anti-CD18 or anti-Factor X receptor antibodies to interact cooperatively to inhibit neutrophil adherence to endothelial cells was assessed by measuring neutrophil adherence to endothelial cells in the presence of antibody as well as antibody plus peptide. Anti-CD18 mAb IB4 was added to leukocytes at 10 μg/ml 10 min before the assay. Anti-Factor X receptor mAb 12H1 (10 μl of ascites) or 9D4 (10 μg/ml) were added to the endothelial cell monolayers 10 min before the assay. The peptides were added at 5 μg/ml. The results are shown in Table 8 where the numerical values are in % of control binding.
The procedures for determining the neutrophil adherence to cultured endothelial cells and the transendothelial migration of neutrophils were identical with those of Example 9. Control values were the same as those shown in Example 9.

## Ac-ETKEVDG-NH2 [Acetyl/Amide-FHA II]
[1]; 6 hours post-pneumococcal challenge, 10 nmoles i.v.
  leukocytes/μl CSF: 3011±684 cells/μl
[1]; FHA 0.1 μM, peptides 10 μM
  Lactate: 24.3 ± 3.2 mg/100 ml
  Protein: 1.2 ± 0.6 mg/ml CSF
[2]; peptides 0.5 mM, FIG. 17
  inhibition of neutrophil adherence to stimulated HUVEC, comparison in words: significantly enhanced

## Filamentous hemagglutinin [native FHA]
[1]; 6 hours after intracisternal inoculation of pneumococci
  Total protein in CSF: 1.70 ± 0.33 mg/mL
[1]; 7 hours after challenge, 10^-3 μM i.v.
  mean leukocyte concentration/μl CSF: ineffective
[1]; 7 hours after challenge, FHA 0.1 μM (25 μg per 2 kg), peptides 10 μM, i.v.
  mean leukocyte concentration/μl CSF: 2096±450 /μl CSF
[1]; 7 hours after challenge, FHA 0.1 μM (25 μg/animal), peptides 1 ml of 1 uM i.v.
  mean leukocyte density/μl CSF: 2096±450 cells/μl CSF
[1]; 7 hours after intracisternal inoculation of pneumococci
  Total protein in CSF: 1.86 ± 0.76 mg/mL
[1]; 7 hours, FHA 0.1 μM, peptides 10 μM
  reduction of CSF leukocytosis: > 60%
[1]; FHA 0.1 μM, peptides 10 μM
  Lactate: 25.0 ± 5.3 mg/100 ml
  Protein: 1.3 ± 0.3 mg/ml CSF
[1]; concentrations reduced from 10 to 0.1 μM, FIG. 21
  anti-inflammatory activity at reduced concentration: more potent anti-inflammatory activity than the corresponding Factor X peptide II
[1]; intravenous, FIG. 5
  inflammation, numbers of leukocytes in the cerebrospinal fluid: decreases inflammation
[2]
  concentration at which loss of activity (≤20% inhibition) occurred: 10^-3 μM
[2]; FIG. 25B
  maximal inhibition of neutrophil attachment: ~ 50%
[2]; Native FHA 50 ug/ml (0.2 uM), FHA peptide C 1 mg/ml (0.2 mM)
  inhibition of adherence of human neutrophils to cultured endothelial cells: 51±7%
[2]; native FHA 25 μg/ml=0.3 μM, mAb IB4 50 μg/ml
  reduction of neutrophil adherence to stimulated HUVEC: 51±8%
